Paper PMC2254147, “Novel Triazine JPC-2067-B Inhibits Toxoplasma gondii In Vitro and In Vivo” (PLoS Neglected Tropical Diseases, 2008)
≈ marks a conversion by molar mass, not a printed value. Where two headings read alike, the source gives them in different places.

Legend:
P. falciparum = settings: ref [4]-[11]; cited from earlier work
[1] = 42-day toxicology study in CD-1 mice; assay type: in vivo
Method: (§1) A 42-day toxicology study in CD-1 mice at doses up to 98 mg/kg evaluating well-being, weight gain, and histopathology was performed. […] 7.5 mg/kg was established as the NOAEL (No Observed Adverse Effect Level). JPC-2056 and JPC-2067 were assayed in the Ames Test with and without microsomal activation with tester strains TA97, TA98, TA100, TA102 and TA1535.

[2] = tested on: tester strains TA97, TA98, TA100, TA102 and TA1535; experiment: Ames Test with and without microsomal activation
Method: as §1

[3] = Thompson Antimalarial Assay LD50; settings: mouse, in vivo; @ Day 6
[4] = 42-day toxicology study in Macaca fascicularis; assay type: in vivo
Pc DHFR = target: T1, Pc DHFR (Pneumocystis carinii, UniProt P16184); experiment: Spectrophotometric DHFR assay, Pneumocystis carinii DHFR; assay type: biochemical
T1 construct: made in house; host or cells: Escherichia coli
T1 sequence (P16184 1-206): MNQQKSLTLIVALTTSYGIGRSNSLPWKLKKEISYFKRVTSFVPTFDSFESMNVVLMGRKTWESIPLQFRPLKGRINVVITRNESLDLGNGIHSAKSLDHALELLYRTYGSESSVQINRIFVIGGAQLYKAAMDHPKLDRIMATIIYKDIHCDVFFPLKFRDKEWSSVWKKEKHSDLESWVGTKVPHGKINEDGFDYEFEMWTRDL
Description: DHFR from Pneumocystis carinii was produced as the recombinant enzyme expressed in Escherichia coli. […] DHFR from T. gondii was isolated directly from RH strain T. gondii grown in culture on Chinese hamster ovary cells lacking DHFR (CHO/dhfr^-, American Type Culture Collection 3952 CL). Organisms were introduced into a confluent monolayer and harvested when the mammalian cells were lysed. The 100,000× g supernate was stored in liquid nitrogen.
The spectrophotometric assay for DHFR was optimized for temperature and concentration of substrate and cofactor for each enzyme. The standard assay contained Na phosphate buffer pH 7.4 (40.7 mM), 2-mercaptoethanol (8.9 mM), NADPH (0.117 mM), dihydrofolic acid (0.09 mM), KCL (150 mM), and sufficient enzyme to produce a change in OD340 of 0.035/minute at 37°C. The reaction was continuously recorded for 3 minutes. […] The low background activity in the absence of dihydrofolic acid was subtracted from all rates.
(§2) DHFR was assayed with several concentrations of inhibitor to produce rates ranging from 1 to 90% of the uninhibited rate. At least three concentrations were required for calculation; most curves contained five concentrations.

Rat liver DHFR = target: T2, Rat liver DHFR (Rattus norvegicus, UniProt Q920D2); experiment: Spectrophotometric DHFR assay, rat liver DHFR; assay type: biochemical; settings: for IC50: 37°C, (95% confidence limits); for Selectivity for pathogen DHFR (in words): rat liver DHFR versus Pc, Tg, Mav DHFR, Table 1
T2 construct: Rat liver DHFR was prepared from livers of female Sprague-Dawley rats; from tissue; host or cells: liver of female Sprague-Dawley rats
T2 sequence (Q920D2 1-187): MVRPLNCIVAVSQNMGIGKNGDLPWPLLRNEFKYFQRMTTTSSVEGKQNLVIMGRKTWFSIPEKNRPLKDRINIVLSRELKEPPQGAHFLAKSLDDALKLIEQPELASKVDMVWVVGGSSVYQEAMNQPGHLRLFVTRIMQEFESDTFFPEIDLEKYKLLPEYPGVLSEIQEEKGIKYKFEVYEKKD
Method: Rat liver DHFR was prepared from livers of female Sprague-Dawley rats. The 100,000× g supernate was partially purified by ammonium sulfate precipitation; the 50–90% precipitate was re-dissolved and stored in liquid nitrogen.
(§3) The spectrophotometric assay for DHFR was optimized for temperature and concentration of substrate and cofactor for each enzyme. […] The reaction was continuously recorded for 3 minutes. […] The low background activity in the absence of dihydrofolic acid was subtracted from all rates.
as §2

Mav DHFR = target: T3, Mav DHFR (Mycobacterium avium, UniProt O30463); experiment: Spectrophotometric DHFR assay, Mycobacterium avium-intracellulare DHFR; assay type: biochemical; settings: 37°C; (95% confidence limits)
T3 construct: the bacteria were centrifuged, sonicated, and the 100,000 Xg supernate was stored under liquid nitrogen until assay; endogenous in cells; host or cells: M. avium-intracellulare clinical isolate (serovar 4), Indiana University School of Medicine
T3 sequence (O30463 1-181): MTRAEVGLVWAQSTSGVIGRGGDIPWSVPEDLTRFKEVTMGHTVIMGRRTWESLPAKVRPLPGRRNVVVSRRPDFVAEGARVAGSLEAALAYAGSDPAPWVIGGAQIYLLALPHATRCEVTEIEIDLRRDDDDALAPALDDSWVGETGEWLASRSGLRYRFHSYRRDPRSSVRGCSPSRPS
Method: Mycobacterium avium-intracellulare used in these studies was a clinical isolate (serovar 4) from Indiana University School of Medicine, Department of Pathology. The strain was maintained on Lowenstein-Jensen slants (Baxter Scientific) grown at room temperature. To produce enzyme, the organism was grown in Middlebrook 7H-9 liquid medium at 37°C to an OD660 of 0.5 to 0.7, which took several weeks. At harvest, the bacteria were centrifuged, sonicated, and the 100,000 Xg supernate was stored under liquid nitrogen until assay. These supernates contained both DHFR and dihydroopteroate synthetase activity.
The spectrophotometric assay for DHFR was optimized for temperature and concentration of substrate and cofactor for each enzyme. The standard assay contained Na phosphate buffer pH 7.4 (40.7 mM), 2-mercaptoethanol (8.9 mM), NADPH (0.117 mM), dihydrofolic acid (0.09 mM), KCL (150 mM), and sufficient enzyme to produce a change in OD340 of 0.035/minute at 37°C. The reaction was continuously recorded for 3 minutes. Activity under these conditions was linear with enzyme concentration over a 4-fold range. The low background activity in the absence of dihydrofolic acid was subtracted from all rates.
as §2

P. falciparum strains = settings: drug-sensitive and drug-resistant strains; ref [4]-[10]; cited from earlier work
TgDHFR = target: T4, TgDHFR (Toxoplasma gondii, UniProt Q07422); experiment: biochemical; assay type: biochemical
T4 construct: DHFR from T. gondii was isolated directly from RH strain T. gondii grown in culture; endogenous in cells; host or cells: RH strain T. gondii grown on CHO/dhfr- cells
T4 sequence (Q07422 1-610): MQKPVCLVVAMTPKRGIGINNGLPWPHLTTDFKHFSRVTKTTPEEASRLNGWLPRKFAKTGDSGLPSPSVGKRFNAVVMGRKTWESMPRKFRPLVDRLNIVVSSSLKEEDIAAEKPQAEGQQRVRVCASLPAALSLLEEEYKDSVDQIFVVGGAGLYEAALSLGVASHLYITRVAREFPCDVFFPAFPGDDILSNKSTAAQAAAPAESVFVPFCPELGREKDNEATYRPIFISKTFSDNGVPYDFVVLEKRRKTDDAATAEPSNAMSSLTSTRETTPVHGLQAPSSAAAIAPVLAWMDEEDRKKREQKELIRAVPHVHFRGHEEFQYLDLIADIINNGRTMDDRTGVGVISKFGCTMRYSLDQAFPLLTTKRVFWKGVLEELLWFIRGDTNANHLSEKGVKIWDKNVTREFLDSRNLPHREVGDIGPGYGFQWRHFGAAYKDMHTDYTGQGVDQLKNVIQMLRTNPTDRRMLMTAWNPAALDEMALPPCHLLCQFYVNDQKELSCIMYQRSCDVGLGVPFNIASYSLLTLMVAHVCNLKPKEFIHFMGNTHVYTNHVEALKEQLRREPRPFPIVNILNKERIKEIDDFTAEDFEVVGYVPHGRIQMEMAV
Method: DHFR from Pneumocystis carinii was produced as the recombinant enzyme expressed in Escherichia coli. […] Organisms were introduced into a confluent monolayer and harvested when the mammalian cells were lysed. The 100,000× g supernate was stored in liquid nitrogen.
as §3, §2

[5] = tested on: tester strains TA97, TA98, TA100, TA102 and TA1535; experiment: Ames Test with and without microsomal activation; settings: Tester Strains TA98, TA100, TA1535, TA1537 and TA1538
[6] = ref 4 (superscript at the row head, footnote not given); cited from earlier work
[7] = ref 4 (superscript at the row head, footnote not given); cited from earlier work; remark: listed apart in the source
[8] = 42-day study, doses up to 98 mg/kg

CC(C)N=C(N)/N=C(\N)NOCCCOc1cc(Cl)c(Cl)cc1Cl.Cl [PS-15]
Activity in vivo against P. falciparum, greater than that of pyrimethamine (P. falciparum): 2 logs

CC(C)NC(=N)NC(=N)NOCCCOc1ccc(OC(F)(F)F)cc1Cl [JPC-2056, 1-(3′-(2-chloro-4-trifluoromethoxyphenyloxy)propyloxy)-5-isopropylbiguanide]
Toxicological findings, CD-1 Mice ([1]; 98 mg/kg for 42 days): Inhibition of Weight Gain at 98 mg/kg for 42 days
Gross pathology, CD-1 mice [1, 8]: no gross pathology with the exception of a reduction in the rate of weight gain
Histopathology findings, CD-1 mice [1, 8]: no histopathology findings
Ames Test, with and without microsomal activation [2]: No activity
Ames w/o Activation [2]: Not Active ^*
Ames with Activation [2]: Not Active ^*
LD50 at 6 day [3]: 256 mg/kg
Toxicological findings, Cynomolgous Monkey ([4]; 15 mg/kg for 42 days): Intermittent Loose Stools/Diarrhea 15 mg/kg for 42 days
Findings in Macaca fascicularis at 15 mg/kg ([4]; 42-day study, 15 mg/kg, resolved upon drug withdrawal): histopathology findings at 15 mg/kg with sproradic episodes of loose stools/diarrhea
NOAEL at 42 day ([4]; cynomolgus monkey, in vivo, 42-day study, read-out: NOAEL (No Observed Adverse Effect Level)): 7.5 mg/kg

CCc1nc(N)nc(N)c1-c1ccc(Cl)cc1 [JPC-1090-A-1, Pyrimethamine]
IC50 (Pc DHFR): 6170 nM
IC50 (Rat liver DHFR): 1320 nM
IC50 (Mav DHFR): 1200 nM

CC1(C)N=C(N)N=C(N)N1OCCCOc1cc(Cl)c(Cl)cc1Cl [JPC-208-B, 4,6-diamino-1,2-dihydro-2,2-dimethyl-1-[3′(2,4,5-trichlorophenoxy)propyloxy]-1,3,5-triazine]
ED50 in vitro against P. falciparum strains (P. falciparum strains): 0.05 ng/mL (≈ 0.127 nM)
IC50 (TgDHFR; 37°C, (95% confidence limits), read-out: Tg DHFR IC50): 0.602 nM
Activity in vivo against P. falciparum, greater than that of pyrimethamine (P. falciparum): 2 logs
LD50 at 6 day [3]: > 128 mg/kg
IC50 (Pc DHFR; 37°C, (95% confidence limits), read-out: Pc DHFR IC50): 0.265 nM
Ames w/o Activation [5]: Not Active ^#
Ames with Activation [5]: Not Active ^#
IC50 (Rat liver DHFR): 0.81 nM
Selectivity for pathogen DHFR (in words) (Rat liver DHFR): not selective
IC50 (Mav DHFR): 0.57 nM
Oral LD50 Rat [6]: 1,980 mg/kg
Oral LD50 Mouse [7]: 3,510 mg/kg

CC1(C)N=C(N)N=C(N)N1c1ccc(Cl)cc1 [JPC-2013-B-1, cycloguanil]
IC50 (TgDHFR): 410 nM
IC50 (Pc DHFR): 8900 nM
IC50 (Rat liver DHFR): 1730 nM
Selectivity for pathogen DHFR (in words) (Rat liver DHFR): not significantly selective
IC50 (Mav DHFR): 12100 nM
